Values of other authors in EP0374532B1, “Improved phase separation-microencapsulated pharmaceutical compositions useful for alleviating dental disease” (AMERICAN CYANAMID COMPANY, priority 1988, dated 1990).

Conditions: human periodontal fluid versus serum

- levels in human periodontal fluid higher than serum levels: five
SMILES: CN(C)c1ccc(O)c2c1C[C@H]1C[C@H]3[C@H](N(C)C)C(O)=C(C(N)=O)C(=O)[C@@]3(O)C(O)=C1C2=O [minocycline, 7-dimethylamino-6-deoxy-6-demethyltetracycline]
